The values below come from patent US20230348362A1, “LIPID COMPOUNDS AND LIPID NANOPARTICLE COMPOSITIONS” (Suzhou Abogen Biosciences Co., Ltd., priority 2021, published 2023).

Format in all cases: physicochemical
Data set [1] is described as follows: Lipid nanoparticle size and polydispersity by dynamic light scattering. Conditions: LNP of lipid/DSPC/cholesterol/PEG-lipid 50:10:38.5:1.5 encapsulating hEPO mRNA. In a few lines: (§1)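 LNPs made from ionizable lipid/DSPC/cholesterol/PEG-lipid (50:10:38.5:1.5) and mRNA in citrate pH 4 by microfluidic mixing, lipid:mRNA about 10:1–30:1 w/w, then dialysed into DPBS and filtered. Size and PDI measured by DLS in backscatter mode; encapsulation efficiency measured by RiboGreen assay.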

Data set [2] can be described thus: Encapsulation efficiency of lipid nanoparticles, Quant-it Ribogreen RNA assay. The settings on record: LNP of lipid/DSPC/cholesterol/PEG-lipid 50:10:38.5:1.5 encapsulating hEPO mRNA. In a few lines: as §1
The nature of data set [3]: Apparent pKa of LNP formulations, TNS fluorescence assay. The settings on record: LNP cationic lipid/DSPC/cholesterol/DMG-PEG 50/10/38.5/1.5 mol %. How it is done:
As reported in literature, the apparent pKa of LNP formulations correlates with the delivery efficiency of LNPs for nucleic acids in vivo. The apparent pKa of each formulation was determined using an assay based on fluorescence of 2-(p-toluidino)-6-napthalene sulfonic acid (TNS). LNP formulations comprising of cationic lipid/DSPC/cholesterol/DMG-PEG (50/10/38.5/1.5 mol %) in PBS were prepared as described above. TNS was prepared as a 300 μM stock solution in distilled water. LNP formulations were diluted to 0.1 mg/mL total lipid in 3 mL of buffered solutions containing 50 mM sodium citrate, 50 mM sodium phosphate, 50 mM sodium borate, and 30 mM sodium chloride where the pH ranged from 3 to 9. An aliquot of the TNS solution was added to give a final concentration of […] and following vortex mixing fluorescence intensity was measured at room temperature in a Molecular Devices Spectramax iD3 spectrometer using excitation and mission wavelengths of 325 nm and 435 nm. A sigmoidal best fit analysis was applied to the fluorescence data and the pKa value was measured as the pH giving rise to half-maximal fluorescent intensity.

Turning to `CCCCCCCC(=O)OCC(CCCCN(CCO)CCN(CCCCC(COC(=O)CCCCCCC)COC(=O)CCCCCCC)C1CCCCC1)COC(=O)CCCCCCC` [Compound 141], in data set [1], the polydispersity came out at 0.128 and the “size (nm)” value was determined as 63.69 nm. For the same molecule, the “Encapsulation Efficiency” value in data set [2] turned out to be 88.11%. The “Apparent Pka” value in data set [3] turned out to be 6.475.
On the same counts, the results for `CCCCCCCCC(CCCCCCCC)COC(=O)CCCCCN(C/C=C/CN(CCCCCC(=O)OCC(CCCCCCCC)CCCCCCCC)C1CCC1)CCO` [Compound 65] are 0.044, 104.2 nm, 93.10% and 6.443.
The like results for `CCCCCCCCC(CCCCCCCC)CNC(=O)CCCCCN(CCO)CCN(CCCCCC(=O)NCC(CCCCCCCC)CCCCCCCC)C1CCCCC1` [Compound 13] were, in that order, 0.105, 60.71 nm, 83.3% and 6.633.
On the same counts, the results for `CCCCCCCCC(CCCCCCCC)CNC(=O)CCCCCN(CCO)CCN(CCCCCC(=O)NCC(CCCCCCCC)CCCCCCCC)C1CCCC1` [Compound 12] are 0.062, 58.17 nm, 89.5% and 6.685.
Regarding `CCCCCCCCC(CCCCCCCC)COC(=O)CCCCCN(CCO)CCN(CCCCCC(=O)OCC(CCCCCCCC)CCCCCCCC)C1CCCCC1C` (stereo not drawn) [Compound 34], in data set [1], the polydispersity is 0.05 and the “size (nm)” value is 55.14 nm. For the same molecule, in data set [2], the “Encapsulation Efficiency” value was 87.2%. The “Apparent Pka” value in data set [3] was 5.485.
The like results for `CCCCCCCCC(CCCCCCCC)CNC(=O)CCCCCN(CC=C(C)C)CCN(CCO)CCCCCC(=O)OCC(CCCCCCCC)CCCCCCCC` [Compound 121] were, in that order, 0.077, 70.01 nm, 93.23% and 6.583.
The like results for `CCCCCCCCCCCC(=O)OCCCCCN(CCN(CCO)CCCCCOC(=O)CC(CCCCCCCC)CCCCCCCC)C1CC1` [Compound 91] were, in that order, 0.115, 64.49 nm, 87.92% and 6.042.
The like results for `CCCCCCCCC(CCCCCC)CNC(=O)CCCCCN(CCOCCO)CCN(CCCCC(COC(=O)CCCCCCC)COC(=O)CCCCCCC)C1CCCCC1` (stereo not drawn) [Compound 206] were, in that order, 0.07, 112.7 nm, 80.88% and 6.81.
Take `CCCCCCCCC(CCCCCCCC)COC(=O)CCCCCN(CCO)CCN(CCCCCC(=O)OCC(CCCCCCCC)CCCCCCCC)C1CCC(C(F)(F)F)CC1` (stereo not drawn) [Compound 29]: in data set [1], the polydispersity worked out at 0.09 and the “size (nm)” value is reported as 59.02 nm. Besides, the “Encapsulation Efficiency” value in data set [2] is recorded as 93.5%. Further, in data set [3], the “Apparent Pka” value stood at 6.073.
As to `CCCCCCCCC(CCCCCC)CNC(=O)CCCCN(CCO)CCN(CCCCC(COC(=O)CCCCCCC)COC(=O)CCCCCCC)C1CCCCCC1` (stereo not drawn) [Compound 229], in data set [1], the polydispersity was determined as 0.042 and the “size (nm)” value was 77.73 nm. In addition, the “Encapsulation Efficiency” value in data set [2] was found to be 92.04%. In data set [3], the “Apparent Pka” value came out at 6.849.
Turning to `CCCCCCCCC(CCCCCC)CNC(=O)CCCCCN(CCCCN(CCO)CCCCC(COC(=O)CCCCCCC)COC(=O)CCCCCCC)C1CC1` (stereo not drawn) [Compound 195], in data set [1], the polydispersity is reported as 0.153 and the “size (nm)” value was 104.2 nm. Besides, the “Encapsulation Efficiency” value in data set [2] worked out at 83.82%. Besides, the “Apparent Pka” value in data set [3] is recorded as 6.925.
With `CCCCCCCCC(CCCCCC)CNC(=O)CCCCCN(CCCCCO)CCN(CCCCC(COC(=O)CCCCCCC)COC(=O)CCCCCCC)C1CCCCCCC1` (stereo not drawn) [Compound 210], in data set [1], the polydispersity is 0.06 and the “size (nm)” value was determined as 79.56 nm. Further, the “Encapsulation Efficiency” value in data set [2] stood at 91.52%. Besides, in data set [3], the “Apparent Pka” value is 6.49.
Regarding `CCCCCCCCC(CCCCCCCC)COC(=O)CCCCCN(CCO)CCN(CCCCCC(=O)OCC(CCCCCCCC)CCCCCCCC)C1CCC1` [Compound 10], in data set [1], the polydispersity was determined as 0.168 and the “size (nm)” value stood at 70.21 nm. The “Encapsulation Efficiency” value in data set [2] is reported as 86.6%. The “Apparent Pka” value in data set [3] was found to be 6.176.
On to `CCCCCCCCCCCOC(=O)CCCCCN(CCN(CCO)CCCCCC(=O)OCC(CCCCCC)CCCCCCCC)C1CC1` (stereo not drawn) [Compound 3], for which, in data set [1], the polydispersity is on record as 0.131 and the “size (nm)” value came to 73.33 nm. Besides, the “Encapsulation Efficiency” value in data set [2] worked out at 93.6%. In data set [3], the “Apparent Pka” value was 6.32.
On the same counts, the results for `CCCCCCCCC(CCCCCCCC)COC(=O)CCCCCN(CCO)CCN(CCCCCOC(=O)OCC(CCCCCCCC)CCCCCCCC)C1CCCCC1` [Compound 133] are 0.267, 74.57 nm, 94.56% and 5.990.
The like results for `CCCCCCCCC(CCCCCCCC)COC(=O)CCCCCN(CCCCCN(CCO)CCCCC(COC(=O)CCCCCCC)COC(=O)CCCCCCC)C1CCC1` [Compound 187] were, in that order, 0.083, 88.82 nm, 94.26% and 6.226.
The like results for `CCCCCCCCC(CCCCCCCC)COC(=O)CCCCCN(CCN(CCO)CCOCCC(=O)OCC(CCCCCCCC)CCCCCCCC)C1CCC1` [Compound 110] were, in that order, 0.042, 84.07 nm, 93.11% and 6.293.
`CCCCCCCCC(CCCCCCCC)COC(=O)CCCCCN(CCNc1c(N(C)C)c(=O)c1=O)CCN(CCCCCC(=O)OCC(CCCCCCCC)CCCCCCCC)C1CCC1` [Compound 85]: in data set [1], the polydispersity was determined as 0.096 and the “size (nm)” value was found to be 67.44 nm. Further, in data set [2], the “Encapsulation Efficiency” value is recorded as 93.27%. Also, the “Apparent Pka” value in data set [3] is listed as 6.126.
The like results for `CCCCCCCCCCCOC(=O)CCCCCN(CCN(CCO)CCCCCC(=O)OCC(CCCCCCCC)CCCCCCCC)C1CCC(F)(F)CC1` [Compound 49] were, in that order, 0.1, 55.04 nm, 95.5% and 6.153.
On the same counts, the results for `CCCCCCCCC(CCCCCC)CNC(=O)CCCCCCN(CCO)CCN(CCCCC(COC(=O)CCCCCCC)COC(=O)CCCCCCC)C1CCCC1` (stereo not drawn) [Compound 230] are 0.051, 89.46 nm, 89.65% and 6.742.
The like results for `CCCCCCCCC(CCCCCC)CC(=O)OCCCCCN(CCO)CCN(CCCCCN(C)C(=O)CC(CCCCCC)CCCCCCCC)C1CCCCCC1` (stereo not drawn) [Compound 147] were, in that order, 0.058, 85.76 nm, 88.17% and 6.62.
As for `CCCCCCCCC(CCCCCCCC)CNC(=O)CCCCCN(CCN(CCCCO)CCCCCC(=O)OCC(CCCCCCCC)CCCCCCCC)C1CCC1` [Compound 77], in data set [1], the polydispersity is 0.006 and the “size (nm)” value is listed as 84.87 nm. The “Encapsulation Efficiency” value in data set [2] is reported as 92.71%. Besides, in data set [3], the “Apparent Pka” value worked out at 6.485.
On the same counts, the results for `CCCCCCCCC(CCCCCCCC)CC(=O)NCCCCCN(CCN(CCO)CCCCCOC(=O)CC(CCCCCCCC)CCCCCCCC)C1CCC1` [Compound 61] are 0.026, 66.08 nm, 95.4% and 6.731.
The like results for `CCCCCCCCC(CCCCCCCC)COC(=O)CCCCCN(C)CCN(CCCCCC(=O)OCC(CCCCCCCC)CCCCCCCC)CCNc1c(NC)c(=O)c1=O` [Compound 79] were, in that order, 0.104, 69.09 nm, 96.26% and 6.914.
The like results for `CCCCCCCCCCCOC(=O)CCCCCN(CCN(CCO)CCCCCC(=O)OCC(CCCCCCCCCC)CCCCCCCCCC)C1CCCCC1` [Compound 47] were, in that order, 0.037, 66.29 nm, 91.0% and 6.298.
Take `CCCCCCCCCCCOC(=O)CCCCCN(CCN(CCO)CCCCCC(=O)OCC(CCCCCCCC)CCCCCCCC)C1CC(F)(F)C1` [Compound 50]: in data set [1], the polydispersity is on record as 0.235 and the “size (nm)” value is reported as 59.59 nm. Besides, the “Encapsulation Efficiency” value in data set [2] is recorded as 93.4%. Moreover, in data set [3], the “Apparent Pka” value worked out at 5.786.
The like results for `CCCCCCCCC(CCCCCCCC)CC(=O)NCCCCCN(CCN(CCO)CCCCCOC(=O)CC(CCCCCCCC)CCCCCCCC)C1CCCCC1` [Compound 73] were, in that order, 0.049, 88.45 nm, 92.38% and 6.597.
